Data: US20100204464A1, “ASCORBIC ACID DERIVATIVES, THEIR PREPARATION METHODS, INTERMEDIATES AND USES IN COSMETICS” (NANJING ZHONGSHI CHEMICAL CO., LTD., priority 2007, published 2010)
Blank lines part the entries; values can stand above or below the compound they belong to.

Columns and labels:
B16F10 cells [1] = test: Quantitative analysis of the content of melanin of B16F10 cells; type: cell-based, murine; details: for Content of melanin of B16F10 cells (Mean ± SE): 6 days, blank control = 100%
Protocol: (§1) The effects of preventing melanin from deposition (whitening effects) of 3-O-glycosyl-L-ascorbic acid and 2-O-α-D-glucopyranosyl-L-ascorbic acid (AA-2G) were evaluated by using B16F10 murine melanoma cells. […] The experimental method comprising:
D. Quantitative analysis of the content of melanin.
B16F10 cells were seeded in φ 60 mm culture mediums, and incubated under 5% CO2 and at 37° C. for 24 h, then the supernatant was removed and to each medium was added culture medium containing different concentration of medicine and for control group, only culture medium was added. Each group was in triplicate and the culture medium was renewed every other day. After being incubated for 6 days, the cells were digested by 0.25% trypsin/EDTA and collected, then washed by PBS twice. The cells of each group were counted and 0.2 mL redistilled water was added to make the cells suspended for 1 min respectively, then the mixture of 500 μL ethanol and 500 μL ether was added. The cells were placed at room temperature for 15 min and centrifuged at a rate of 3000 rpm for 5 min, then the supernatant was removed and 1 ml NaOH (1 mol/L, containing 10% DMSO) was added to the precipitate. After being placed at 80° C. for 30 min, 4 mL redistilled water was added to dilute the concentration of NaOH to 0.2 mol/L. The absorbance of each group was measured at a wavelength of 475 nm (reference wavelength: 620 nm) by spectrophotometer. The content of melanin=[(absorbance of the group of medicine to be screened/average amount of cells)/(average absorbance of control group/average amount of cells)]*100%

[2] = test system: B16F10 murine melanoma cells; test: MTT experiment: multiplication of melanoma cells; type: cell-based; details: for Multiplication rate of melanoma cell (MTT method, Mean ± SE): 72 h, blank control = 100%; for Concentration at which multiplication of B16F10 cells was significantly inhibited / Concentration with no influence on the multiplication of B16F10 cells: MTT experiment
Protocol: as §1
A. MTT experiment: to investigate the influence of each sample on the multiplication of B16F10 murine melanoma cell through cell culture.
All cells were seeded in the 96-well plate respectively at a density of 1*10^4/well, and incubated under 5% CO2 and at 37° C. for 24 h, then the supernatant was removed and to each well was added […] culture medium containing a certain concentration of medicine. Three concentrations, high, middle and low, were set for each medicine, each concentration in quadruplicate wells. For control group, 200 μL culture medium was directly added and incubated for 72 h. 20 μL MTT solution (5 g/L) was added to each well and the sample was incubated under 5% CO2 and at 37° C. for 4 h, then the supernatant was removed and to each well was added 150 μL DMSO. The sample was vibrated for 10 min and the absorbance of each well was measured at a wavelength of 490 nm (reference wavelength: 620 nm) by enzyme-label instrument. Cell multiplication rate=(average absorbance of each concentration of medicine to be screened)/(average absorbance of control group)*100%.

[3] = Stability of aqueous solutions stored 3 months, content by HPLC and color; type: physicochemical; details: for Color, in words / Content (HPLC), in words: 10%, 5% and 1.0% aqueous solutions; for Content (HPLC): initial content 98%
Protocol: In the comparative experiment of stability between 3-O-lactosyl-L-ascorbic acid and 2-O-α-D-glucopyranosyl-L-ascorbic acid (AA-2G), both compounds were prepared as 10%, 5% and 1.0% aqueous solutions respectively and were placed at 0° C., 25° C. and […] respectively for 3 months.

tyrosinase = molecular target: T1, tyrosinase (Mus musculus, UniProt P11344); test: Activity of tyrosinase of B16F10 melanoma cells (L-DOPA, absorbance 490 nm); type: cell-based, murine; details: for Activity of tyrosinase of B16F10 melanoma cell (Mean ± SE): 6 days, control = 100%
T1 construct: endogenous in cells; host or cells: B16F10 murine melanoma cells
T1 sequence (P11344 19-533): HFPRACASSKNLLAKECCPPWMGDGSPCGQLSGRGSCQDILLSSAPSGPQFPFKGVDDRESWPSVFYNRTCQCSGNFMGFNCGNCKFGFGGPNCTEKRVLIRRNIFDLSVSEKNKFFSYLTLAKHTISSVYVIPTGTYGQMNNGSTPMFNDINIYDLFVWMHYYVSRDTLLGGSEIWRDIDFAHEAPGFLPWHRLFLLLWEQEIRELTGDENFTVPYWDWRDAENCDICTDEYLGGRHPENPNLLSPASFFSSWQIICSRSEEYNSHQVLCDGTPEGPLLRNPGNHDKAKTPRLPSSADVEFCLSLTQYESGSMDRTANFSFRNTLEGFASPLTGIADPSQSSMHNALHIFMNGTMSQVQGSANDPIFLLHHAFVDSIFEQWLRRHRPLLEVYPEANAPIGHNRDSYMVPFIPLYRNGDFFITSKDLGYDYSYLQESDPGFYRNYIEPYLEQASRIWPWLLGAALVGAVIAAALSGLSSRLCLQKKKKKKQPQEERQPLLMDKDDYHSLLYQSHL
Protocol: as §1
B. Experiment for determining the activity of tyrosinase: to investigate through cell culture the influence of each sample on the activity of tyrosinase playing an important role in the formation of melanin.
B16F10 cells were seeded in the 96-well plate respectively at a density of 5*10^3/well, and incubated under 5% CO2 and at 37° C. for 24 hour, then the supernatant was removed and to each well was added 100 μL culture medium containing different concentration of medicine to be screened and for blank control group, only culture medium was added. Each group was in quadruplicate and the culture medium was renewed every other day. After being incubated for 6 days, each well was washed by PBS without Ca^2+ and Mg^2+, and then 100 μL Triton-X solution (0.5%) was added to each well. After being vibrated in ultrasound for 30 minutes, 50 μL L-DOPA solution (10 mM/L) was added to each well and the samples was kept at 37° C. for 3 hours. The absorbance of each well was measured at a wavelength of 490 nm (reference wavelength: 620 nm) by enzyme-label instrument. Influence rate of the activity of tyrosinase=(average absorbance of the group of medicine to be screened)/(average absorbance of control group)*100%

B16F10 cells [4] = test: DOPA staining of B16F10 cells (qualitative melanin/tyrosinase); type: cell-based, murine; details: 6 days, 0.5% L-DOPA, photos under microscope
Protocol: as §1
Each group was in quadruplicate and the culture medium was renewed every other day.

SMILES: O=c1cc(CO)occ1O [Kojic acid]
- Content of melanin of B16F10 cells (Mean ± SE) (B16F10 cells [1]; 1.0 mM): 37.20 ± 4.33 %
- Content of melanin of B16F10 cells (Mean ± SE) (B16F10 cells [1]; 2.5 mM): 24.15 ± 1.88 %
- Content of melanin of B16F10 cells (Mean ± SE) (B16F10 cells [1]; 5.0 mM): 17.65 ± 1.42 %
- Multiplication rate of melanoma cell (MTT method, Mean ± SE) ([2]; 1.0 mM): 92.20 ± 8.28%
- Multiplication rate of melanoma cell (MTT method, Mean ± SE) ([2]; 5.0 mM): 63.23 ± 3.66%
- Multiplication rate of melanoma cell (MTT method, Mean ± SE) ([2]; 10.0 mM): 43.10 ± 2.31 %
- Multiplication rate of melanoma cell (MTT method, Mean ± SE) ([2]; 20.0 mM): 43.55 ± 7.36 %

- Color, in words ([3]; 0° C.): colorless
- Content (HPLC), in words ([3]; 0° C.): almost unchanged
- Color, in words ([3]; 25° C. and 45° C.): obviously yellow
- Content (HPLC), in words ([3]; 25° C. and 45° C.): decreased
- Activity of tyrosinase of B16F10 melanoma cell (Mean ± SE) (tyrosinase; 1.0 mM): 95.99 ± 2.01%
- Activity of tyrosinase of B16F10 melanoma cell (Mean ± SE) (tyrosinase; 2.5 mM): 92.40 ± 0.94%
- Activity of tyrosinase of B16F10 melanoma cell (Mean ± SE) (tyrosinase; 5.0 mM): 69.90 ± 1.733 %
- Inhibiting effect on the activity of tyrosinase (tyrosinase; rather weaker than 3-O-lactosyl-L-ascorbic acid): a certain inhibiting effect
SMILES: O=C1O[C@H]([C@@H](O)CO)C(O)=C1O[C@H]1O[C@H](CO)[C@@H](O)[C@H](O)[C@H]1O [VC derivative 1, 2-O-α-D-glucopyranosyl-L-ascorbic acid]
- Effect of inhibiting the synthesis of melanin (B16F10 cells [1]): relatively weak
- Content of melanin of B16F10 cells (Mean ± SE) (B16F10 cells [1]; 1.0 mM): 96.37 ± 3.63%
- Content of melanin of B16F10 cells (Mean ± SE) (B16F10 cells [1]; 2.5 mM): 91.11 ± 1.82%
- Content of melanin of B16F10 cells (Mean ± SE) (B16F10 cells [1]; 5.0 mM): 84.19 ± 1.85%
- Multiplication rate of melanoma cell (MTT method, Mean ± SE) ([2]; 1.0 mM): 108.66 ± 9.32%
- Multiplication rate of melanoma cell (MTT method, Mean ± SE) ([2]; 5.0 mM): 100.98 ± 14.79%
- Multiplication rate of melanoma cell (MTT method, Mean ± SE) ([2]; 10.0 mM): 43.21 ± 7.40 %
- Multiplication rate of melanoma cell (MTT method, Mean ± SE) ([2]; 20.0 mM): 8.17 ± 0.46 %
- Concentration at which multiplication of B16F10 cells was significantly inhibited [2]: ≥ 5.0 mM
- Concentration with no influence on the multiplication of B16F10 cells [2]: lower than 5.0 mM

- Activity of tyrosinase of B16F10 melanoma cell (Mean ± SE) (tyrosinase; 1.0 mM): 50.02 ± 4.04 %
- Activity of tyrosinase of B16F10 melanoma cell (Mean ± SE) (tyrosinase; 2.5 mM): 38.07 ± 1.78 %
- Activity of tyrosinase of B16F10 melanoma cell (Mean ± SE) (tyrosinase; 5.0 mM): 20.53 ± 1.02 %
SMILES: OC[C@H]1O[C@@H](Oc2ccc(O)cc2)[C@H](O)[C@@H](O)[C@@H]1O [Arbutin]
- Content of melanin of B16F10 cells (Mean ± SE) (B16F10 cells [1]; 1.0 mM): 50.12 ± 1.97 %
- Content of melanin of B16F10 cells (Mean ± SE) (B16F10 cells [1]; 2.5 mM): 36.61 ± 2.15 %
- Content of melanin of B16F10 cells (Mean ± SE) (B16F10 cells [1]; 5.0 mM): 20.53 ± 1.02 %
- Multiplication rate of melanoma cell (MTT method, Mean ± SE) ([2]; 1.0 mM): 113.57 ± 5.57%
- Multiplication rate of melanoma cell (MTT method, Mean ± SE) ([2]; 5.0 mM): 102.94 ± 3.64%
- Multiplication rate of melanoma cell (MTT method, Mean ± SE) ([2]; 10.0 mM): 76.94 ± 6.08%
- Multiplication rate of melanoma cell (MTT method, Mean ± SE) ([2]; 20.0 mM): 46.15 ± 3.41 %

- Color ([3]; 1% aqueous solution, 0 °C): Colorless
- Content (HPLC) ([3]; 1% aqueous solution, 0 °C): 98%
- Color ([3]; 1% aqueous solution, 25 °C): Colorless
- Content (HPLC) ([3]; 1% aqueous solution, 25 °C): 98%
- Color ([3]; 1% aqueous solution, 45 °C): Slight
- Content (HPLC) ([3]; 1% aqueous solution, 45 °C): 96%
- Color ([3]; 5% aqueous solution, 0 °C): Colorless
- Content (HPLC) ([3]; 5% aqueous solution, 0 °C): 98%
- Color ([3]; 5% aqueous solution, 25 °C): Colorless
- Content (HPLC) ([3]; 5% aqueous solution, 25 °C): 98%
- Color ([3]; 5% aqueous solution, 45 °C): Slight
- Content (HPLC) ([3]; 5% aqueous solution, 45 °C): 96%
- Color ([3]; 10% aqueous solution, 0 °C): Colorless
- Content (HPLC) ([3]; 10% aqueous solution, 0 °C): 98%
- Color ([3]; 10% aqueous solution, 25 °C): Colorless
- Content (HPLC) ([3]; 10% aqueous solution, 25 °C): 98%
- Color ([3]; 10% aqueous solution, 45 °C): Slight
- Content (HPLC) ([3]; 10% aqueous solution, 45 °C): 94%
- Color, in words ([3]; 0° C.): colorless
- Content (HPLC), in words ([3]; 0° C.): almost unchanged
- Color, in words ([3]; 25° C. and 45° C.): colorless
- Content (HPLC), in words ([3]; 25° C. and 45° C.): changed little
- Activity of tyrosinase of B16F10 melanoma cell (Mean ± SE) (tyrosinase; 1.0 mM): 51.01 ± 2.71 %
- Activity of tyrosinase of B16F10 melanoma cell (Mean ± SE) (tyrosinase; 2.5 mM): 36.19 ± 2.98 %
- Activity of tyrosinase of B16F10 melanoma cell (Mean ± SE) (tyrosinase; 5.0 mM): 20.68 ± 1.34 %
- Inhibition of tyrosinase activity compared with kojic acid (tyrosinase; high concentration group (5.0 mM)): no statistical difference
- Inhibition of the activity of tyrosinase (tyrosinase; high, middle and low concentrations (5.0 mM, 2.5 mM and 1.0 mM)): significantly inhibited
- Inhibition of tyrosinase activity compared with kojic acid (tyrosinase; middle and low concentration groups (2.5 mM, 1.0 mM)): weaker
- Inhibition of tyrosinase activity compared with arbutin (tyrosinase; three concentration groups (5.0, 2.5, 1.0 mM)): no statistical difference
SMILES: O=C1O[C@H]([C@@H](O)CO)C(OC2O[C@H](CO)[C@@H](O[C@@H]3O[C@H](CO)[C@H](O)[C@H](O)[C@H]3O)[C@H](O)[C@H]2O)=C1O (stereo partly drawn) [VC derivative 2, 3-O-(D-lactosyl)-L-ascorbic acid]
- Content of melanin of B16F10 cells (Mean ± SE) (B16F10 cells [1]; 1.0 mM): 51.01 ± 2.71 %
- Content of melanin of B16F10 cells (Mean ± SE) (B16F10 cells [1]; 2.5 mM): 30.08 ± 3.77 %
- Content of melanin of B16F10 cells (Mean ± SE) (B16F10 cells [1]; 5.0 mM): 22.24 ± 1.80 %
- Inhibiting melanin synthesis compared with kojic acid and arbutin (B16F10 cells [1]; at the same concentration): no statistical difference
- Degree of DOPA staining compared with blank control group (B16F10 cells [4]): lower degree of staining
- Multiplication rate of melanoma cell (MTT method, Mean ± SE) ([2]; 1.0 mM): 72.67 ± 10.59%
- Multiplication rate of melanoma cell (MTT method, Mean ± SE) ([2]; 5.0 mM): 79.34 ± 3.99%
- Multiplication rate of melanoma cell (MTT method, Mean ± SE) ([2]; 10.0 mM): 76.56 ± 7.67%
- Multiplication rate of melanoma cell (MTT method, Mean ± SE) ([2]; 20.0 mM): 66.67 ± 5.48 %
- Concentration at which multiplication of B16F10 cells was significantly inhibited [2]: ≥ 10.0 mM
- Concentration with no influence on the multiplication of B16F10 cells [2]: lower than 10.0 mM
